# Counter-ions that a name gives are not always drawn.
# Assays:
# [1] = cited from earlier work
# [2] = system: HSV-1; test: Virucidal assay: HSV-1 incubated with product, then added to Vero cells, MTT readout; assay type: cell-based; conditions: 3 µg/mL
# Protocol: (§1) The product was evaluated for its effective concentration against the virus without causing toxicity to the tested cells. The virus (HSV-1) was added to different dilutions of the product and incubated for 1 hour at 37°C. Then, the solution was diluted (1:10) and added to Vero cells (ATCC CCL-81) for incubation for 72 hours at 37°C and 5% CO2. Positive control (virus without treatment with the inclusion compounds) and negative control (cells without virus and without treatment) were used, under the same conditions, in all tests. The results were evaluated by MTT (Mosmann, 1983; Sieuwerts et al., 1995). The assays were carried out in a NB-2 laboratory (Biosafety Level 2) following Good Laboratory Practices (GLP) and in accordance with the recommendations of ANVISA (Art. 1 and Art. 3 of IN 04/13 and IN 12/16).
# [3] = Cytotoxicity in Vero cells (MTT); assay type: cell-based; conditions: monkey
# Protocol: as §1
structure (smiles),measurement,setting,value
Nc1nc2c(ncn2COCCO)c(=O)[nH]1 [Acyclovir],plasma protein binding,[1],less than 20%
N=C(NCCCCCCNC(=N)NC(=N)Nc1ccc(Cl)cc1)NC(=N)Nc1ccc(Cl)cc1 [digluconate salt of chlorhexidine],inactivation of HSV-1,[2],unable to inactivate HSV-1
same,CC50 at 72 h,[3],> 3 µg/mL

# — patent publication EP4620476A1, “ANTIVIRAL COMPOSITION CONTAINING INCLUSION COMPOUNDS WITH CYCLODEXTRINS AS ACTIVITY MODULATORS AND ANTISEPTIC ACTIVES AND USES THEREOF” (Silva, Renata Moisés Iwamizu, priority 2022, dated 2024)
